Ends that are not written are not given here.
Experiments:
Type in all cases: cell-based, human
MDA-MB-231 cells [1] = test: Sphere formation assay; conditions: MDA-MB-231 cells, with PTX3 treatment
Experimental: Note that 5 × 10^3 MDA‐MB‐231 cells were seeded in ultralow attachment plates (Corning) per well. Then, cultured in conditional medium containing the treatment of TGF‐β1, PTX3, PTX3NA, RI37, GI40, IgG1κ, PTX3 Ab‐10 or PTX3 Ab‐49 and the DMEM/F12 (Gibco) added with B27 (Invitrogen), 10 ng/ml bFGF (Peprotech) and 20 ng/ml EGF (Abcam). Number of spheres was calculated by microscope after 2 weeks.

MDA-MB-231 cells [2] = test: Transwell migration and Matrigel invasion assays; conditions: with PTX3 treatment, 18 h
Excerpt: In migration assay, MDA‐MB‐231 cells seeded in 8.0 μm pore polycarbonate membrane inserts (BD Biosciences) in 24‐well plates. In Matrigel invasion assay, inserts were pre‐coated with an appropriate amount of Matrigel first, and the same number of cells seeded on the Matrigel. After cells adhered on the inserts, serum‐free DMEM medium added in the upper wells. Serum‐free medium containing the treatments of TGF‐β1, PTX3, PTX3NA, PTX3/N, PTX3/C, RI37, GI40, AD9, GR9, IgG1κ, PTX3 Ab‐10 or PTX3 Ab‐49 were then mixed into the lower wells of the 24‐well plates. After incubating for 18 h, cells outside the insert were removed by wiping. The inside the inserts were then stained by 4′,6‐diamidino‐2‐phenylindol (DAPI). Fluorescence microscope was used for counting the total number of migrated cells with 200× magnification. Different from the experimental design for the MDA‐MB‐231 cells, the migrated 4T1‐Luc2 cells in the inside of the insert were detected by luciferase activity.

[3] = system: AKT, NF-κB and ERK1/2 activity in MDA-MB-231 cells; test: Western blot of PTX3-induced signalling; conditions: with PTX3 treatment
Excerpt: Experimental cells were lysed with radioimmunoprecipitation assay buffer (RIPA) buffer. Specific antibodies including PTX3 (ab90806; Abcam), CEBPD (sc‐636; Santa Cruz Biotechnology), CD44 (GTX83114; GeneTex), α‐tubulin (T6199; Sigma), P84 (GTX70220; GeneTex), RAC1 (GTX100761; GeneTex), CDC42 (GTX100904; GeneTex), AKT (GTX121937; GeneTex), Phospho‐AKT (Ser473) (GTX128414; GeneTex), Phospho‐NF‐κB p65 (Ser536) (#93H1; Cell Signaling), RhoA (ab68826; Abcam), NF‐κB p65 (#3033; Cell Signaling), Phospho‐p38 MAPK (Thr180/Tyr182) (#9211; Cell Signaling), PTEN (ab32199; Abcam), p38 MAPK (#9212; Cell Signaling), Phospho‐SAPK/JNK (Thr183/Tyr185) (#4668; Cell Signaling), Phospho‐p70 S6 Kinase (Thr389) (MABS82; Millipore), Phospho‐PAK1 (Ser199/Ser204) (09‐258; Millipore), SAPK/JNK (#9252; Cell Signaling), Phospho‐p44/42 MAPK (ERK1/2) (Thr202/Tyr204) (#4377; Cell Signaling) and p44/42 MAPK (ERK1/2) (#9102; Cell Signaling) were used for Western blotting.

RI37: peptide, PTX3 amino acids 200–236 (RPMRLESFSACIWVKATDVLNKTILFSYGTKRNPYEI; also: biotin, position not given here)
suppressed: PTX3-induced sphere-forming ability (stemness) (MDA-MB-231 cells [1]) | PTX3-induced migration and invasion (MDA-MB-231 cells [2]) | PTX3-induced AKT, NF-κB and ERK1/2 activity (signalling pathways) [3]

GI40: peptide, PTX3 amino acids 320–359 (GGGFDETLAFSGRLTGFNIWDSVLSNEEIRETGGAESCHI; also: biotin, position not given here)
suppressed: PTX3-induced sphere-forming ability (stemness) (MDA-MB-231 cells [1]) | PTX3-induced migration and invasion (MDA-MB-231 cells [2]) | PTX3-induced AKT, NF-κB and ERK1/2 activity (signalling pathways) [3]

Reference: PMC8797470, “Disruption of the pentraxin 3/CD44 interaction as an efficient therapy for triple‐negative breast cancers” (Clinical and Translational Medicine, 2022)
